Test results reported in US6790859B2, “Reversing advanced glycosylation cross-links using heterocyclic-substituted thiazolium compounds” (Alteon Incorporated, priority 1998, dated 2004).

Test system: AGE-BSA cross-linked to rat tail tendon collagen (type 1)
Test: Reversing collagen cross-links: AGE-BSA cross-linked to rat tail tendon collagen-coated plates
Format: biochemical
Conditions: 3 mM test compound, overnight at 37° C.
Procedure: In a further evaluation of the ability of compounds of the present invention to reverse AGE cross-links between a circulating protein and collagen, AGE-BSA was cross-linked to rat tail tendon collagen (type 1)-coated 96 well microtiter plates, and reversal of cross-linking was determined.
AGE-BSA preparation. AGE-BSA is prepared by incubation of a solution of BSA (400 mg/ml) in 0.4 M sodium phosphate buffer pH 7.4 with an equal volume of 400 mM glucose solution in the same buffer at 37° C. for 12 weeks. The pH of the incubation mixture is monitored weekly and adjusted to pH 7.4 if necessary. After 12 weeks, the AGE-BSA solution is dialyzed against PBS for 48 hours with 4 buffer changes. Protein concentration is determined by the micro-Lowry method.
Assay protocol. […] AGE-BSA was diluted in PBS to a concentration required to obtain maximum cross-linking as determined in a preliminary experiment. […]
Test compounds are dissolved in PBS and pH adjusted to 7.0 if necessary. […] The test compounds and PBS are also added to triplicate wells incubated with BSA, to obtain the blank readings. […]
The plate is washed with PBS-Tween, […] of Rabbit-anti-BSA antibody (1 to 4000 in PBS) is added to each well and the plate is incubated at room temperature for 60 min. […] Optical density is read at 410 nm with the sample filter set to “1” and the reference filter set to “5” on the Dynatech ELISA plate reader. […]

**Q.** For O=C(C[n+]1ccsc1)c1cc(-c2ccccc2)no1.[Br-] [3-[2-(3-phenyl-5-isoxazolyl)-2-oxoethyl]-thiazolium bromide], which “reversal of AGE cross-links (percent breaking, decrease in OD of TTC-AGE-BSA wells vs PBS)” value is on record?
**A.** The value was 15%.

Test system: IgG bound to the surface of RBC (AGE cross-links)
Test: Reversing AGE cross-links: RBC-IgG assay (IgG bound to RBC from streptozotocin-diabetic rats)
Format: cell-based, rat
Conditions: RBC of streptozotocin-diabetic rats incubated with test compound in PBS overnight at 37° C.; concentration not given
Procedure: The activity of the compounds of the present invention to reverse AGE cross-links was evaluated in an in-vitro model, as follows. Blood was collected from streptozotocin-diabetic rats (6 to 8 wk diabetic) in heparinized tubes, centrifuged at 2500×g for 15 min. at […], and the plasma and buffy-coat layers aspirated off. The RBC were washed with PBS (ca. 5 ml PBS per ml blood) three times. Test compounds were dissolved in PBS and the pH adjusted to 7.0, if necessary. Two hundred microliters of washed RBC were added to 2 mL of test compound solution, and the mixture was incubated overnight at 37° C. […] After the overnight incubation, the reaction mixtures were centrifuged and the RBC pellets were washed three times with PBS, followed by diluting 1:30 in PBS. Immunoglobulin G (IgG) bound to the surface of the washed RBCs was then determined. Assay for RBC-IgG: The assay is performed in a Multiscreen-HA, 0.45 μm cellulose mixed esters membrane-sealed 96 well plate (Millipore MAHAS45). The membranes are first wet by filling the wells with 100 uL PBS, and the wells emptied by applying a vacuum to the Millititer vacuum manifold. Three hundred uL of Superblock (pre-warmed to 37° C.) is then added to each well and incubated at 37° C. for one hour. The Superblock is then removed from the wells by application of vacuum, then the wells are washed once with 300 ul of PBS-Tween (0.05%) and three times with PBS. The vacuum is then turned off. One hundred μl of PBS is then added to each well. Each RBC sample is gently vortexed, and 50 uL pipetted into the wells, in sextuplicate. The wells labeled A1-A3 are left for a reagent blank and wells A4-A6 reserved for an antibody blank. Vacuum is then applied to remove the buffer and the RBCs are washed once with PBS. Alkaline phosphatase-labeled rabbit-anti-rat IgG is diluted 1 to 25000 in PBS, and 50 μl is added to triplicate wells of each sample. PBS alone is added to the other three wells of each sample. These will serve as sample blanks to adjust for any endogenous alkaline phosphatase activity. The samples are allowed to stand at room temperature for two hours. The solution is then removed by application of vacuum and the red blood cells are washed with PBS-Tween twice, PBS twice and with TBS twice. The bottom of the plate is rinsed with distilled water and blotted dry with paper towels. To each well is then added 100 μl of p-nitrophenyl phosphate substrate (1 mg/ml in diethanolamine buffer pH 9.5), and the color is allowed to develop for two hours at 37° C. The solutions in each well are then transferred to a 96 well microtiter plate inside the vacuum manifold. One hundred μl of PBS to each well and vacuum applied again to transfer any remaining solution into the microtiter plate. The OD at 410 nm is then read in a Dynatech Plate reader (Sample filter 1 and Ref. filter 4). For data analysis, breaking activity (percent reversal) is expressed as the percent decrease in O.D. caused by incubation of RBC with the test compound compared to RBC incubated in PBS alone. Using the above assay, the following data was generated on the compounds of the present invention: […]

**Q.** Which “Percent reversal (breaking activity: percent decrease in O.D. vs RBC incubated in PBS alone)” value does the source give for Cc1sc[n+](CC(=O)c2ccc3c(c2)CCC(=O)N3)c1C.[Br-] [3-[2-(2-oxo-1,2,3,4-tetrahydro-6-quinolinyl)-2-oxoethyl]-4,5-dimethylthiazolium bromide] here?
**A.** Its value is 84%.

**Q.** How did the “Percent reversal (breaking activity: percent decrease in O.D. vs RBC incubated in PBS alone)” value turn out when Cc1c(CCO)sc[n+]1CC(=O)c1cccs1.[Br-] [3-(2-(2-thienyl)-2-oxoethyl)-4-methyl-5-hydroxyethylthiazolium bromide] was run?
**A.** Its value is 24%.

**Q.** Which “Percent reversal (breaking activity: percent decrease in O.D. vs RBC incubated in PBS alone)” value does the source give for Cc1sc[n+](CC(=O)N2CCC(Cc3ccccc3)CC2)c1C.[Cl-] [3-[2-(4-benzyl-1-piperidinyl)-2-oxoethyl]-4,5-dimethylthiazolium chloride] here?
**A.** Its value is 70%.

**Q.** With Cc1sc[n+](CC(=O)N2CCCCC2)c1C.[Br-] [3-(2-(1-piperidinyl)-2-oxoethyl)-4,5-dimethylthiazolium bromide] as the compound, how does the “Percent reversal (breaking activity: percent decrease in O.D. vs RBC incubated in PBS alone)” value read?
**A.** The value was 37%.

**Q.** With Cc1sc[n+](CC(=O)c2ccco2)c1C.[Br-] [3-(2-(2-furanyl)-2-oxoethyl)-4,5-dimethylthiazolium bromide] as the compound, how does the “Percent reversal (breaking activity: percent decrease in O.D. vs RBC incubated in PBS alone)” value read?
**A.** The value was 76%.

**Q.** How did the “Percent reversal (breaking activity: percent decrease in O.D. vs RBC incubated in PBS alone)” value turn out when Cc1sc[n+](CC(=O)c2cccs2)c1C.[Br-] [3-(2-(2-thienyl)-2-oxoethyl)-4,5-dimethyl-thiazolium bromide] was run?
**A.** The value was 53%.

**Q.** Cc1sc[n+](CC(=O)c2ccccn2)c1C.[Br-] [3-(2-(2-pyridinyl)-2-oxoethyl)-4,5-dimethyl-thiazolium bromide] was tested. Which “Percent reversal (breaking activity: percent decrease in O.D. vs RBC incubated in PBS alone)” value did it give?
**A.** Its value is 27%.

**Q.** How did the “Percent reversal (breaking activity: percent decrease in O.D. vs RBC incubated in PBS alone)” value turn out when Cc1sc[n+](CC(=O)N2CC(C)OC(C)C2)c1C.[Br-] (stereo not drawn) [3-[2-(2,6-dimethyl-4-morpholinyl)-2-oxoethyl]-4,5-dimethylthiazolium bromide] was run?
**A.** The value was 38%.

**Q.** Cc1sc[n+](CC(=O)N2CCCC2)c1C.[Br-] [3-(2-(1-pyrrolidinyl)-2-oxoethyl)-4,5-dimethyl-thiazolium bromide] was tested. Which “Percent reversal (breaking activity: percent decrease in O.D. vs RBC incubated in PBS alone)” value did it give?
**A.** Its value is 63%.

**Q.** Cc1sc[n+](CC(=O)N2CCSCC2)c1C.[Br-] [3-(2-(4-thiomorpholinyl)-2-oxoethyl)-4,5-dimethylthiazolium bromide] was tested. Which “Percent reversal (breaking activity: percent decrease in O.D. vs RBC incubated in PBS alone)” value did it give?
**A.** Its value is 47%.

**Q.** Which “Percent reversal (breaking activity: percent decrease in O.D. vs RBC incubated in PBS alone)” value does the source give for O=C(C[n+]1ccsc1)c1cc(-c2ccccc2)no1.[Br-] [3-[2-(3-phenyl-5-isoxazolyl)-2-oxoethyl]-thiazolium bromide] here?
**A.** Its value is 38%.
